Laboratory results from the NIST ThermoML archive (doi:10.1021/acs.jced.5b00105).
Numbers after ± are expanded uncertainties.

Assay: refractive index (Na D-line) (dimensionless); xn = mol fraction of the nth substance listed
Conditions: 100 kPa, Liquid

Compound `CCC1CCCCC1` [ethylcyclohexane] + CC(C)CC(C)(C)C has a refractive index (293.15 K, x1 = 0.1) of 1.3959 ± 0.0015, a refractive index (293.15 K, x1 = 0.2) of 1.4005 ± 0.0015 and a refractive index (293.15 K, x1 = 0.3003) of 1.4043 ± 0.0015. It also gave a refractive index (293.15 K, x1 = 0.3997) of 1.4084 ± 0.0015, a refractive index (293.15 K, x1 = 0.5002) of 1.4123 ± 0.0015 and a refractive index (293.15 K, x1 = 0.6005) of 1.4167 ± 0.0015. The refractive index (293.15 K, x1 = 0.7002) was 1.4207 ± 0.0015, the refractive index (293.15 K, x1 = 0.8003) was 1.4254 ± 0.0015 and the refractive index (293.15 K, x1 = 0.8997) was 1.4295 ± 0.0015. It also gave a refractive index (293.15 K, x1 = 1) of 1.4337 ± 0.0015, a refractive index (298.15 K, x1 = 0.1) of 1.3926 ± 0.0015 and a refractive index (298.15 K, x1 = 0.1999) of 1.3965 ± 0.0015. For the same compound, the refractive index (298.15 K, x1 = 0.3) was 1.4004 ± 0.0015, the refractive index (298.15 K, x1 = 0.4) was 1.4046 ± 0.0015 and the refractive index (298.15 K, x1 = 0.5) was 1.4086 ± 0.0015. It also gave a refractive index (298.15 K, x1 = 0.6001) of 1.4129 ± 0.0015, a refractive index (298.15 K, x1 = 0.7004) of 1.4172 ± 0.0015 and a refractive index (298.15 K, x1 = 0.8001) of 1.4214 ± 0.0015. For the same compound, the refractive index (298.15 K, x1 = 0.8994) was 1.4256 ± 0.0015, the refractive index (298.15 K, x1 = 1) was 1.4301 ± 0.0015 and the refractive index (303.15 K, x1 = 0.1) was 1.3918 ± 0.0015. For the same compound, the refractive index (303.15 K, x1 = 0.2) was 1.3964 ± 0.0015, the refractive index (303.15 K, x1 = 0.3003) was 1.4003 ± 0.0015 and the refractive index (303.15 K, x1 = 0.3997) was 1.4041 ± 0.0015. For the same compound, the refractive index (303.15 K, x1 = 0.5002) was 1.4084 ± 0.0015, the refractive index (303.15 K, x1 = 0.6005) was 1.4125 ± 0.0015 and the refractive index (303.15 K, x1 = 0.7002) was 1.4169 ± 0.0015. For the same compound, the refractive index (303.15 K, x1 = 0.8003) was 1.4211 ± 0.0015, the refractive index (303.15 K, x1 = 0.8997) was 1.4253 ± 0.0015 and the refractive index (303.15 K, x1 = 1) was 1.4295 ± 0.0015. It also gave a refractive index (308.15 K, x1 = 0.1) of 1.3889 ± 0.0015, a refractive index (308.15 K, x1 = 0.1999) of 1.3932 ± 0.0015 and a refractive index (308.15 K, x1 = 0.3) of 1.3975 ± 0.0015. It also gave a refractive index (308.15 K, x1 = 0.4) of 1.4015 ± 0.0015, a refractive index (308.15 K, x1 = 0.5) of 1.4059 ± 0.0015 and a refractive index (308.15 K, x1 = 0.6001) of 1.4098 ± 0.0015. The refractive index (308.15 K, x1 = 0.7004) was 1.4146 ± 0.0015, the refractive index (308.15 K, x1 = 0.8001) was 1.4186 ± 0.0015 and the refractive index (308.15 K, x1 = 0.8994) was 1.4228 ± 0.0015. For the same compound, the refractive index (308.15 K, x1 = 1) was 1.4278 ± 0.0015, the refractive index (313.15 K, x1 = 0.1) was 1.3877 ± 0.0015 and the refractive index (313.15 K, x1 = 0.2) was 1.3924 ± 0.0015. The refractive index (313.15 K, x1 = 0.3003) was 1.396 ± 0.0015, the refractive index (313.15 K, x1 = 0.3997) was 1.4003 ± 0.0015 and the refractive index (313.15 K, x1 = 0.5002) was 1.4047 ± 0.0015. It also gave a refractive index (313.15 K, x1 = 0.6005) of 1.4087 ± 0.0015, a refractive index (313.15 K, x1 = 0.7002) of 1.4132 ± 0.0015 and a refractive index (313.15 K, x1 = 0.8003) of 1.4175 ± 0.0015. The refractive index (313.15 K, x1 = 0.8997) was 1.4216 ± 0.0015, the refractive index (313.15 K, x1 = 1) was 1.4259 ± 0.0015 and the refractive index (318.15 K, x1 = 0.1) was 1.3826 ± 0.0015. It also gave a refractive index (318.15 K, x1 = 0.1999) of 1.3867 ± 0.0015, a refractive index (318.15 K, x1 = 0.3) of 1.3912 ± 0.0015 and a refractive index (318.15 K, x1 = 0.4) of 1.3954 ± 0.0015. The refractive index (318.15 K, x1 = 0.5) was 1.3996 ± 0.0015, the refractive index (318.15 K, x1 = 0.6001) was 1.4037 ± 0.0015 and the refractive index (318.15 K, x1 = 0.7004) was 1.4081 ± 0.0015. The refractive index (318.15 K, x1 = 0.8001) was 1.4118 ± 0.0015, the refractive index (318.15 K, x1 = 0.8994) was 1.4161 ± 0.0015 and the refractive index (318.15 K, x1 = 1) was 1.4204 ± 0.0015. The refractive index (323.15 K, x1 = 0.1) was 1.3805 ± 0.0015, the refractive index (323.15 K, x1 = 0.1999) was 1.3849 ± 0.0015 and the refractive index (323.15 K, x1 = 0.3) was 1.3891 ± 0.0015. The refractive index (323.15 K, x1 = 0.4) was 1.3931 ± 0.0015, the refractive index (323.15 K, x1 = 0.5) was 1.3975 ± 0.0015 and the refractive index (323.15 K, x1 = 0.6001) was 1.4015 ± 0.0015. The refractive index (323.15 K, x1 = 0.7004) was 1.4059 ± 0.0015, the refractive index (323.15 K, x1 = 0.8001) was 1.4097 ± 0.0015 and the refractive index (323.15 K, x1 = 0.8994) was 1.4144 ± 0.0015. For the same compound, the refractive index (323.15 K, x1 = 1) was 1.4187 ± 0.0015.

`CC1CCCCC1` [methylcyclohexane] + CC(C)CC(C)(C)C gave a refractive index (293.15 K, x1 = 0.1012) of 1.395 ± 0.0015, a refractive index (293.15 K, x1 = 0.2003) of 1.3975 ± 0.0015 and a refractive index (293.15 K, x1 = 0.3001) of 1.4 ± 0.0015. For the same compound, the refractive index (293.15 K, x1 = 0.4019) was 1.403 ± 0.0015, the refractive index (293.15 K, x1 = 0.5008) was 1.406 ± 0.0015 and the refractive index (293.15 K, x1 = 0.6) was 1.409 ± 0.0015. For the same compound, the refractive index (293.15 K, x1 = 0.6998) was 1.4125 ± 0.0015, the refractive index (293.15 K, x1 = 0.8) was 1.4158 ± 0.0015 and the refractive index (293.15 K, x1 = 0.9) was 1.4195 ± 0.0015. For the same compound, the refractive index (293.15 K, x1 = 1) was 1.4232 ± 0.0015, the refractive index (298.15 K, x1 = 0.0999) was 1.3912 ± 0.0015 and the refractive index (298.15 K, x1 = 0.1999) was 1.3938 ± 0.0015. It also gave a refractive index (298.15 K, x1 = 0.2997) of 1.3966 ± 0.0015, a refractive index (298.15 K, x1 = 0.4) of 1.3997 ± 0.0015 and a refractive index (298.15 K, x1 = 0.5) of 1.4028 ± 0.0015. It also gave a refractive index (298.15 K, x1 = 0.6) of 1.4059 ± 0.0015, a refractive index (298.15 K, x1 = 0.7001) of 1.4092 ± 0.0015 and a refractive index (298.15 K, x1 = 0.7999) of 1.4127 ± 0.0015. The refractive index (298.15 K, x1 = 0.9) was 1.4161 ± 0.0015, the refractive index (298.15 K, x1 = 1) was 1.4199 ± 0.0015 and the refractive index (303.15 K, x1 = 0.1012) was 1.3903 ± 0.0015. It also gave a refractive index (303.15 K, x1 = 0.2003) of 1.3929 ± 0.0015, a refractive index (303.15 K, x1 = 0.3001) of 1.3958 ± 0.0015 and a refractive index (303.15 K, x1 = 0.4019) of 1.3988 ± 0.0015. The refractive index (303.15 K, x1 = 0.5008) was 1.4018 ± 0.0015, the refractive index (303.15 K, x1 = 0.6) was 1.4049 ± 0.0015 and the refractive index (303.15 K, x1 = 0.6998) was 1.4082 ± 0.0015. The refractive index (303.15 K, x1 = 0.8) was 1.4117 ± 0.0015, the refractive index (303.15 K, x1 = 0.9) was 1.4153 ± 0.0015 and the refractive index (303.15 K, x1 = 1) was 1.419 ± 0.0015. The refractive index (308.15 K, x1 = 0.0999) was 1.3876 ± 0.0015, the refractive index (308.15 K, x1 = 0.1999) was 1.3902 ± 0.0015 and the refractive index (308.15 K, x1 = 0.2997) was 1.3942 ± 0.0015. It also gave a refractive index (308.15 K, x1 = 0.4) of 1.3962 ± 0.0015, a refractive index (308.15 K, x1 = 0.5) of 1.3998 ± 0.0015 and a refractive index (308.15 K, x1 = 0.6) of 1.4029 ± 0.0015. For the same compound, the refractive index (308.15 K, x1 = 0.7001) was 1.4064 ± 0.0015, the refractive index (308.15 K, x1 = 0.7999) was 1.4097 ± 0.0015 and the refractive index (308.15 K, x1 = 0.9) was 1.4132 ± 0.0015. For the same compound, the refractive index (308.15 K, x1 = 1) was 1.4168 ± 0.0015, the refractive index (313.15 K, x1 = 0.1012) was 1.3861 ± 0.0015 and the refractive index (313.15 K, x1 = 0.2003) was 1.3887 ± 0.0015. For the same compound, the refractive index (313.15 K, x1 = 0.3001) was 1.3916 ± 0.0015, the refractive index (313.15 K, x1 = 0.4019) was 1.3947 ± 0.0015 and the refractive index (313.15 K, x1 = 0.5008) was 1.3978 ± 0.0015. The refractive index (313.15 K, x1 = 0.6) was 1.401 ± 0.0015, the refractive index (313.15 K, x1 = 0.6998) was 1.4043 ± 0.0015 and the refractive index (313.15 K, x1 = 0.8) was 1.4077 ± 0.0015. For the same compound, the refractive index (313.15 K, x1 = 0.9) was 1.4114 ± 0.0015, the refractive index (313.15 K, x1 = 1) was 1.415 ± 0.0015 and the refractive index (318.15 K, x1 = 0.0999) was 1.3811 ± 0.0015. It also gave a refractive index (318.15 K, x1 = 0.1999) of 1.3844 ± 0.0015, a refractive index (318.15 K, x1 = 0.2997) of 1.3871 ± 0.0015 and a refractive index (318.15 K, x1 = 0.4) of 1.3898 ± 0.0015. The refractive index (318.15 K, x1 = 0.5) was 1.393 ± 0.0015, the refractive index (318.15 K, x1 = 0.6) was 1.3962 ± 0.0015 and the refractive index (318.15 K, x1 = 0.7001) was 1.3993 ± 0.0015. The refractive index (318.15 K, x1 = 0.7999) was 1.403 ± 0.0015, the refractive index (318.15 K, x1 = 0.9) was 1.4066 ± 0.0015 and the refractive index (318.15 K, x1 = 1) was 1.4102 ± 0.0015. For the same compound, the refractive index (323.15 K, x1 = 0.0999) was 1.3789 ± 0.0015, the refractive index (323.15 K, x1 = 0.1999) was 1.3819 ± 0.0015 and the refractive index (323.15 K, x1 = 0.2997) was 1.3846 ± 0.0015. The refractive index (323.15 K, x1 = 0.4) was 1.3869 ± 0.0015, the refractive index (323.15 K, x1 = 0.5) was 1.3905 ± 0.0015 and the refractive index (323.15 K, x1 = 0.6) was 1.3938 ± 0.0015. The refractive index (323.15 K, x1 = 0.7001) was 1.397 ± 0.0015, the refractive index (323.15 K, x1 = 0.7999) was 1.4 ± 0.0015 and the refractive index (323.15 K, x1 = 0.9) was 1.4039 ± 0.0015. The refractive index (323.15 K, x1 = 1) was 1.4078 ± 0.0015.
